# Test results from patent publication US7759331B2, “Pyridine-containing macroheterococylic compounds as kinase inhibitors” (Janssen Pharmaceutica NV, priority 2006, dated 2010).
# How the values were obtained:
# Test in all cases: Protein kinase selectivity panel
# Assay type in all cases: biochemical
# Conditions in all cases: 1.0 μM compound, 10 μM ATP
# CDK2/cyclinA(h) = CDK2/cyclinA(h) (Homo sapiens, UniProt P24941)
# Protocol: (§1) Protein kinase selectivity assays were performed as described in the scientific literature (Davies, S. P., et al., Biochem. J. 2000, 351, 95-105). Briefly, protein kinases were assayed for their ability to phosphorylate the appropriate peptide/protein substrates in the presence of 1.0 μM compound. Assays were done using 10 μM ATP and were linear with respect to time. The protein kinase selectivity assays were performed by Upstate Cell Signaling Solutions using Upstate's KinaseProfiler™ Selectivity Screening Service.
# CDK3/cyclinE(h) = CDK3/cyclinE(h) (Homo sapiens, UniProt Q00526)
# Chain of CDK3/cyclinE(h) (Q00526 whole entry): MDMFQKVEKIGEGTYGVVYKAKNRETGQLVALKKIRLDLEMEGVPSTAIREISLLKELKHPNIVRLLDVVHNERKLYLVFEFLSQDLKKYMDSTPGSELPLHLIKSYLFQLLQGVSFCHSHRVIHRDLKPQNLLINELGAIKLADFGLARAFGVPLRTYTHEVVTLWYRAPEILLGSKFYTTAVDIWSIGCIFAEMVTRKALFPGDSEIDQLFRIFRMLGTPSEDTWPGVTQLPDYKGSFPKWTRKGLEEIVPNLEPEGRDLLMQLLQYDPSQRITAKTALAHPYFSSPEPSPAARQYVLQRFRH
# Chain of CDK3/cyclinE(h) (P24864 whole entry partner): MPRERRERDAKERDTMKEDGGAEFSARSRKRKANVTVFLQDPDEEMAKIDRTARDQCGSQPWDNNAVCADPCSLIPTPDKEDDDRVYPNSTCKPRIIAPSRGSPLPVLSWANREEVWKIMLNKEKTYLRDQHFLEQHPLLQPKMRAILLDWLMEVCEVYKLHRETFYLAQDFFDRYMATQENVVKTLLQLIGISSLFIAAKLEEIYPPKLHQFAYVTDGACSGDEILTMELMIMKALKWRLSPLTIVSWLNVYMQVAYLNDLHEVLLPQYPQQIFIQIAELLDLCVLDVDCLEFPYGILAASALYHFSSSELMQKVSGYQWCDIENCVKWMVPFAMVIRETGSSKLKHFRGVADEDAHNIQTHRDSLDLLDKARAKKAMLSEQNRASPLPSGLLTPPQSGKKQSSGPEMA
# Protocol: as §1
# CK2(h) = CK2(h) (Homo sapiens, UniProt P68400)
# Chain of CK2(h) (P68400 whole entry): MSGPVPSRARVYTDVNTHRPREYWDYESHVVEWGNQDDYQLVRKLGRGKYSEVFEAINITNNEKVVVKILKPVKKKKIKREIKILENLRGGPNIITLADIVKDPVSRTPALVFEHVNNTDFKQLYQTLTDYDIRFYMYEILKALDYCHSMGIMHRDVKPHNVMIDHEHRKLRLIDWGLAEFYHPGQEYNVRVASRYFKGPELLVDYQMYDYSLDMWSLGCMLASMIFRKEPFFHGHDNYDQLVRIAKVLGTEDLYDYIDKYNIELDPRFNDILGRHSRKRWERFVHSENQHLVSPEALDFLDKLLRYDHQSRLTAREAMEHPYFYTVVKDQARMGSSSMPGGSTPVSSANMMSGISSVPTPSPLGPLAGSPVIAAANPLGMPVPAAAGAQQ
# Chain of CK2(h) (P67870 whole entry partner): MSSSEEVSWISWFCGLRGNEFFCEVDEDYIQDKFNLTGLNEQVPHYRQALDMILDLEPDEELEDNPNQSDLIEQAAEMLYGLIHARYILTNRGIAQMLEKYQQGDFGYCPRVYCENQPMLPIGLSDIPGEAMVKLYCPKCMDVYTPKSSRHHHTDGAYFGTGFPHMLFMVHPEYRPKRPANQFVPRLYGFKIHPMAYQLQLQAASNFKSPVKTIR
# Protocol: as §1
# EphB4(h) = molecular target: T1, EphB4(h) (Homo sapiens, UniProt P54760)
# T1 sequence (P54760 16-987): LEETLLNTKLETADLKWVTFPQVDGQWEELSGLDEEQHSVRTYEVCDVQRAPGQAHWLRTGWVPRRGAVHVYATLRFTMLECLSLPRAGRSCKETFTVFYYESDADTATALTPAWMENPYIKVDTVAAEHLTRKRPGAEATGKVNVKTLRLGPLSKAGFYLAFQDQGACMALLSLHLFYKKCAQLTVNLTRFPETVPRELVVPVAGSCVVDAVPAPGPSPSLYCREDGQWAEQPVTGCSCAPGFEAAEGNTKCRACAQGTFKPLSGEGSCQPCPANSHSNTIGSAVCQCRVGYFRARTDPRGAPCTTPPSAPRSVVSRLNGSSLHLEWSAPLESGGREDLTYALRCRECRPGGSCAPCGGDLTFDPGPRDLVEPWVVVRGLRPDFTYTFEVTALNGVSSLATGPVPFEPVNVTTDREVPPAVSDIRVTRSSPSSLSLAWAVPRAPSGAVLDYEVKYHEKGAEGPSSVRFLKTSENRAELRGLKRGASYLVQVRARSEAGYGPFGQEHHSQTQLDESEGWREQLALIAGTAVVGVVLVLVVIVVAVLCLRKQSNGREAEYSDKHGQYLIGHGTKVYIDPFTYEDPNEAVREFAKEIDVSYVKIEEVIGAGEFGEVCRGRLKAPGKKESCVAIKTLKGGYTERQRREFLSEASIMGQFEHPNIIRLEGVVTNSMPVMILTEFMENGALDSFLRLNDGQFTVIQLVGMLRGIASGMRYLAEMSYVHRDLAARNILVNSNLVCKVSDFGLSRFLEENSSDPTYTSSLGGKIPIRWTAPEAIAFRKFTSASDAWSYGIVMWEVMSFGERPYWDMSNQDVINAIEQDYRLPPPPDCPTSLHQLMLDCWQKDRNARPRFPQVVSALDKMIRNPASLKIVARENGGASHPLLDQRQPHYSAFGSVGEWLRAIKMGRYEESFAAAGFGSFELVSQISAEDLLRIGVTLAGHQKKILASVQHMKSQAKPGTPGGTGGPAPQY
# Protocol: as §1
# Lck(h) = Lck(h) (Homo sapiens, UniProt P06239)
# Chain of Lck(h) (P06239 whole entry): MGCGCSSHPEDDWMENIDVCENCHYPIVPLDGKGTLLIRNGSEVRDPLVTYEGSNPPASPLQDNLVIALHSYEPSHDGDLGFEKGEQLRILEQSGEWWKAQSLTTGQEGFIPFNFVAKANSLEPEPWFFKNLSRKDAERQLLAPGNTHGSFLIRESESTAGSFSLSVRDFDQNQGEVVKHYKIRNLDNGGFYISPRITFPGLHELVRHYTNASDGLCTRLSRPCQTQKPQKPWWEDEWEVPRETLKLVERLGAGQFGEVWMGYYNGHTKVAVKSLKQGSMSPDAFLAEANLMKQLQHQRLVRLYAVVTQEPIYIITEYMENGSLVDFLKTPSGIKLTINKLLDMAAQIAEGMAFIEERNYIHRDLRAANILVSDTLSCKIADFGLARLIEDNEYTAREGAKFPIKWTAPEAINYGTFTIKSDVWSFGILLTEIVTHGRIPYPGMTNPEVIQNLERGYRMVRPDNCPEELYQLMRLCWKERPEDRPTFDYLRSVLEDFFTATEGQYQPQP
# Protocol: as §1
# Lyn(m) = Lyn(m) (Mus musculus, UniProt P25911)
# Chain of Lyn(m) (P25911 whole entry): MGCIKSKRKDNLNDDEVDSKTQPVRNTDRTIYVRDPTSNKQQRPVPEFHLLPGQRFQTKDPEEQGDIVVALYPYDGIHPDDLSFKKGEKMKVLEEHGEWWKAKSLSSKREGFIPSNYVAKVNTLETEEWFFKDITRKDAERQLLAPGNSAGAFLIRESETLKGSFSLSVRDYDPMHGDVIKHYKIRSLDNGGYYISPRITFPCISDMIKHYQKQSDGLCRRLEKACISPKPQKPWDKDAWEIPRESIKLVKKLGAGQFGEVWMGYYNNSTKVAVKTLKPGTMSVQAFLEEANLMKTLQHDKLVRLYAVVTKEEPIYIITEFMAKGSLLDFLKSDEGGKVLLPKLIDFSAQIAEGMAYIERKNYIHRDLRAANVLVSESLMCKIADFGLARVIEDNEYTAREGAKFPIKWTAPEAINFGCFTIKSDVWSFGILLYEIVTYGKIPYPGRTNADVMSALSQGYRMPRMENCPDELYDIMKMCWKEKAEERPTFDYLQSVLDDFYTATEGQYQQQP
# Protocol: as §1
# MAPK2(h) = MAPK2(h) (Homo sapiens, UniProt P28482)
# Chain of MAPK2(h) (P28482 whole entry): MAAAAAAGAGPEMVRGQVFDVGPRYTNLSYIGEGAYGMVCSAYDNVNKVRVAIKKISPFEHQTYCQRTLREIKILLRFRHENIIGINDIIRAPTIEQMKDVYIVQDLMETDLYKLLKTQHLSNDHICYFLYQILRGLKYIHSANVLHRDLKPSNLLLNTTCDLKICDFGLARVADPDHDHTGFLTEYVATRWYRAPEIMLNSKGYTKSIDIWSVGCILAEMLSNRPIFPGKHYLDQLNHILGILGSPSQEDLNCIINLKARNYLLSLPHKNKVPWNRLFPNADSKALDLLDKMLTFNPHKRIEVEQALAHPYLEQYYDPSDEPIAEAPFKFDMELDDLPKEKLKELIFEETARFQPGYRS
# Protocol: as §1
# PAK2(h) = PAK2(h) (Homo sapiens, UniProt Q13177)
# Chain of PAK2(h) (Q13177 whole entry): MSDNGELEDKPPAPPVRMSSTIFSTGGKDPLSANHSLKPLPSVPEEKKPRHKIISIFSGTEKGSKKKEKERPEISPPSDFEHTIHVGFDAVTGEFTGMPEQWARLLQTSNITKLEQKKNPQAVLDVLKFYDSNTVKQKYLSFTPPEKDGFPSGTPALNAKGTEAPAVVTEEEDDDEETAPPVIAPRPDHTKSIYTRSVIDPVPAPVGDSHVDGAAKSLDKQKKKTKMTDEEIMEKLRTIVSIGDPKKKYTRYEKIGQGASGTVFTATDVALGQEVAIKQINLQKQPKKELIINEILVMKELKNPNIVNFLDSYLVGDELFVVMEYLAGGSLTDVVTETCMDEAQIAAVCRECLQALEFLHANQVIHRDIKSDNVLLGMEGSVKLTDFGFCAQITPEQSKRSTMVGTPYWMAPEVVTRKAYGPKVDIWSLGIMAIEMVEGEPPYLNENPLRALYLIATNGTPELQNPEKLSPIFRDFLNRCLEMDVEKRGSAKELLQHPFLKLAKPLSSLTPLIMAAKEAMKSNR
# Protocol: as §1
# PDGFRα(h) = PDGFRα(h) (Homo sapiens, UniProt P16234)
# Chain of PDGFRα(h) (P16234 24-1089): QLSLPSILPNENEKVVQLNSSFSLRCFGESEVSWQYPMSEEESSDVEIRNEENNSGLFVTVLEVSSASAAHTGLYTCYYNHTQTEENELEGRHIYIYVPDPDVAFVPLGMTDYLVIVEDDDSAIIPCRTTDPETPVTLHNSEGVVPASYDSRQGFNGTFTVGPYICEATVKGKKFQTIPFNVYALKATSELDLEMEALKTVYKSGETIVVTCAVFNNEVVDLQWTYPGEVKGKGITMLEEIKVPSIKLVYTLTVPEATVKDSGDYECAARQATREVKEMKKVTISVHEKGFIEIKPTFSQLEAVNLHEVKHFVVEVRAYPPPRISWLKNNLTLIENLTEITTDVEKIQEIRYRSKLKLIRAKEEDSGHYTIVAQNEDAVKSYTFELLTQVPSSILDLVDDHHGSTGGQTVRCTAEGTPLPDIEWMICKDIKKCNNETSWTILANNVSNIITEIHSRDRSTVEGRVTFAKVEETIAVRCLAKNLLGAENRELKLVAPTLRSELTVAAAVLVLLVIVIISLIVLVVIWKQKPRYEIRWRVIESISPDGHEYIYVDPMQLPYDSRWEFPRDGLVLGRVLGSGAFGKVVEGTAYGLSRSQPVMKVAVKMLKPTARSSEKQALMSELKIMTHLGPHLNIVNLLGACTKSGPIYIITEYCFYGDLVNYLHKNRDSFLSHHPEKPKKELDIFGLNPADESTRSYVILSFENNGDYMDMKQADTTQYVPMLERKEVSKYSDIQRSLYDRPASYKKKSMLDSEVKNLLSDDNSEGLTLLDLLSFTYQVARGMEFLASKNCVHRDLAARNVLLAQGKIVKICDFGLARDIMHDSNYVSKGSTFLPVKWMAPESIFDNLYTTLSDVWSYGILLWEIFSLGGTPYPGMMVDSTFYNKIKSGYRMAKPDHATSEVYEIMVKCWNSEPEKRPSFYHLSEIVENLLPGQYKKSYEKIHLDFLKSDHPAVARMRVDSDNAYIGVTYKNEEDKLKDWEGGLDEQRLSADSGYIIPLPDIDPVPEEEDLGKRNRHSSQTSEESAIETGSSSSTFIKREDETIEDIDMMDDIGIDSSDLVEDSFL
# Protocol: as §1
# PKCμ(h) = molecular target: T2, PKCμ(h) (Homo sapiens, UniProt Q15139)
# T2 sequence (Q15139 1-912): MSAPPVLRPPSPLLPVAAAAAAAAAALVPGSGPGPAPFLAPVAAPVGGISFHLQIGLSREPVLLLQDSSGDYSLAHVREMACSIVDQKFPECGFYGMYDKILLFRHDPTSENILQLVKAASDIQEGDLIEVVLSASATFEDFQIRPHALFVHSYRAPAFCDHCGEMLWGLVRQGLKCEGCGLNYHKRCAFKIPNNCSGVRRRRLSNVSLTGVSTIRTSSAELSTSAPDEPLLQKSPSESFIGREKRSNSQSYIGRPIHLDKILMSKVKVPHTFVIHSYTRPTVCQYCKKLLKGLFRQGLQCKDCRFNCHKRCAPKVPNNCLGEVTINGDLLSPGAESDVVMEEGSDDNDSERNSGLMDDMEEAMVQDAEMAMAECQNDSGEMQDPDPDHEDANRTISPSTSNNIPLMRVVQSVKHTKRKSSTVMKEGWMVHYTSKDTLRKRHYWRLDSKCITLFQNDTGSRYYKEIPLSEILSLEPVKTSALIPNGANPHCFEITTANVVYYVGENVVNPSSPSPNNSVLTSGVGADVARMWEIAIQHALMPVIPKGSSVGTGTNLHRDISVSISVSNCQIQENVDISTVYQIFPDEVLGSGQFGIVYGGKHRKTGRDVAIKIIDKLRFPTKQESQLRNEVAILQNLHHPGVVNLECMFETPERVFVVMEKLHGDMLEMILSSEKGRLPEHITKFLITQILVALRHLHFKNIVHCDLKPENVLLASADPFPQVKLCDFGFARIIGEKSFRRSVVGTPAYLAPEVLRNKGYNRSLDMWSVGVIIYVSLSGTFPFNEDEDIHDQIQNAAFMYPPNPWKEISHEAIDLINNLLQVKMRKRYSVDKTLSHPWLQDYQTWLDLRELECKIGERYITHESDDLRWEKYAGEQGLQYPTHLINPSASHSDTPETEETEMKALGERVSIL
# Protocol: as §1
# Syk(h) = Syk(h) (Homo sapiens, UniProt P43405)
# Protocol: as §1
Structure (SMILES),"Activity at Protein Kinase Assays (% of control), CDK2/cyclinA(h) (CDK2/cyclinA(h))","Activity at Protein Kinase Assays (% of control), CDK3/cyclinE(h) (CDK3/cyclinE(h))","Activity at Protein Kinase Assays (% of control), CK2(h) (CK2(h))","Activity at Protein Kinase Assays (% of control), EphB4(h) (EphB4(h))","Activity at Protein Kinase Assays (% of control), Lck(h) (Lck(h))","Activity at Protein Kinase Assays (% of control), Lyn(m) (Lyn(m))","Activity at Protein Kinase Assays (% of control), MAPK2(h) (MAPK2(h))","Activity at Protein Kinase Assays (% of control), PAK2(h) (PAK2(h))","Activity at Protein Kinase Assays (% of control), PDGFRα(h) (PDGFRα(h))","Activity at Protein Kinase Assays (% of control), PKCμ(h) (PKCμ(h))","Activity at Protein Kinase Assays (% of control), Syk(h) (Syk(h))"
"CN(C)c1cc2cc(n1)CCCn1cc(c3ccccc31)C1=C(C(=O)NC1=O)c1cn(c3ccccc13)CCC2 [Cpd 2, 20-(dimethylamino)-4,14,19,26-tetraazaheptacyclo[24.6.1.1^7,14.1^18,22.0^2,6.0^8,13.0^27,32]pentatriaconta-1(33),2(6),7(35),8,10,12,18(34),19,21,27,29,31-dodecaene-3,5-dione]",80 % of control,89 % of control,111 % of control,103 % of control,100 % of control,102 % of control,104 % of control,103 % of control,119 % of control,118 % of control,101 % of control
"CN(C)c1nc2ccc1CCCCn1cc(c3ccccc31)C1=C(C(=O)NC1=O)c1cn(c3ccccc13)CCC2 [Cpd 1, 31-(dimethylamino)-5,15,25,32-tetraazaheptacyclo[28.2.2.1^5,12.1^18,25.0^6,11.0^13,17.0^19,24]hexatriaconta-1(32),6,8,10,12(36),13(17),18(35),19,21,23,30,33-dodecaene-14,16-dione]",120 % of control,59 % of control,107 % of control,89 % of control,96 % of control,90 % of control,102 % of control,93 % of control,107 % of control,110 % of control,86 % of control
"O=C1NC(=O)C2=C1c1cn(c3ccccc13)CCCc1ccc(c(N3CCCC3)n1)CCCn1cc2c2ccccc21 [Cpd 7, 31-pyrrolidin-1-yl-5,15,25,30-tetraazaheptacyclo[27.2.2.1^5,12.1^18,25.0^6,11.0^13,17.0^19,24]pentatriaconta-1(31),6,8,10,12(35),13(17),18(34),19,21,23,29,32-dodecaene-14,16-dione]",88 % of control,106 % of control,113 % of control,100 % of control,90 % of control,104 % of control,88 % of control,102 % of control,113 % of control,113 % of control,109 % of control
"O=C1NC(=O)C2=C1c1cn(c3ccccc13)CCCc1cc(nc(N3CCCC3)c1)CCCn1cc2c2ccccc21 [Cpd 6, 20-pyrrolidin-1-yl-4,14,19,26-tetraazaheptacyclo[24.6.1.1^7,14.1^18,22.0^2,6.0^8,13.0^27,32]pentatriaconta-1(33),2(6),7(35),8,10,12,18(34),19,21,27,29,31-dodecaene-3,5-dione]",88 % of control,86 % of control,108 % of control,109 % of control,99 % of control,99 % of control,92 % of control,100 % of control,126 % of control,118 % of control,105 % of control
